The subject of assay [1] is AKT (S473). The assay is described as follows: Western blot of AKT phosphorylation in colonic lysates of C. jejuni infected mice. The format is in vivo. The note with it: AS252424 10 mg/kg i.p. daily, 6 days. Here is the method: A segment of the distal colon was lysed in 300 μl Laemmli buffer, homogenized and heated at 95° C. for 5 min. 20 μg of total protein were separated by SDS-PAGE and transferred to nitrocellulose membranes. Targeted protein was detected using enhanced chemiluminescence reaction (ECL) as described previously (Muhlbauer et al., 2008). Primary antibodies used were phosphor-AKT (S473), phosphor-p70S6K (T389), total AKT (all from Cell Signaling, Danvers, Mass., United States of America) and EGFP (Sigma, St. Louis, Mo., United States of America). The density of Western blot bands was quantified using ImageJ and data were normalized to total AKT control.

The subject of assay [2] is Cxcl2 mRNA. Briefly: Real-time RT-PCR of colonic Cxcl2 mRNA. The format is in vivo, mice. The note with it: AS252424 vs vehicle treated infected mice. How it is done:
Total RNA from colonic tissue was extracted using TRIzol® kit (Invitrogen, Carlsbad, Calif., United States of America). Complementary DNA was prepared using M-MLV (Invitrogen). Messenger RNA levels of proinflammatory genes were determined using SYBR® Green PCR Master Mix (Applied Biosystems, Carlsbad, Calif., United States of America) on an ABI 7900HT Fast Real-Time PCR System and normalized to Gapdh. The polymerase chain reactions were performed according to the manufacturer's recommendation. The following gene primers were used: Gapdh_forward: 5′-[…]-3′ (SEQ ID NO: 2), Gapdh_reverse: 5′-[…]-3′ (SEQ ID NO: 3), II-1_forward: 5′-[…]-3′ (SEQ ID NO: 4), II-1_reverse: 5′-[…]-3′ (SEQ ID NO: 5), Cxcl2_forward: 5′-[…]-3′ (SEQ ID NO: 6), Cxcl2_reverse: 5′-[…]-3′ (SEQ ID NO: 7), II-17a_forward: 5′-[…]-3′ (SEQ ID NO: 8), II-17a_reverse: 5′-[…]-3′ (SEQ ID NO: 9), II12p40_forward: […] (SEQ ID NO: 10), II12p40_reverse: […] (SEQ ID NO: 11), Tnf forward: […] (SEQ ID NO: 12), Tnf reverse: […] (SEQ ID NO: 13).
Total RNA from intestinal tissues was extracted using TRIzol® kit (Invitrogen, Carlsbad, Calif., United States of America) following the manufacture's guide. cDNA was reverse-transcribed using M-MLV (Invitrogen). Proinflammatory 111β, Cxcl2, II17a and Tnfα mRNA expression levels were measured using SYBR® Green PCR Master mix (Applied Biosystems, Carlsbad, Calif., United States of America) on an ABI 7900HT Fast Real-Time PCR System and normalized to Gapdh. The PCR primers used were reported previously. (Sun et al., 2012). The PCR reactions were performed for 40 cycles according to the manufacturer's recommendation, and RNA fold changes were calculated using the ΔΔct method.

Assay [3] has as its system C. jejuni. Briefly: FISH for C. jejuni in colon. The note with it: AS252424-treated mice. The class given is in vivo. How it is done:
Cy3-tagged 5′[…]3′ (SEQ ID NO: 1; Poppert et al., 2008) was used to probe the presence of C. jejuni. Deparaffinized, formalin-fixed 5 μm thick sections were incubated for 15 minutes in lysozyme (300,000 Units/ml lysozyme; Sigma-Aldrich, St. Louis, Mo., United States of America) buffer (25 mM Tris pH 7.5, 10 mM EDTA, 585 mM sucrose, and 0.3 mg/ml sodium taurocholate) at room temperature and hybridized overnight at 46° C. in hybridization chambers with the oligonucleotide probe (final concentration of 5 ng/μl in a solution of 30 percent formamide, 0.9 M sodium chloride, 20 mM Tris pH 7.5, and 0.01% sodium dodecyl sulfate). Tissue sections were washed for 20 minutes at 48° C. in washing buffer (0.9 M sodium chloride, 20 mM Tris pH 7.5) and once in distilled water for 10 seconds, dried at 46° C., mounted with DAPI mount media, and imaged using a Zeiss (Carl Zeiss, Thornwood, N.Y., United States of America) LSM710 Spectral Confocal Laser Scanning Microscope system with ZEN 2008 software. Acquired images were analyzed using BioimageXD. (Kankaanpaa et al., 2006). […]
Cy3-tagged 5′[…]3′ (SEQ ID NO: 1) was used to probe the presence of C. jejuni in the intestinal tissue sections as previously described (Sun et al., 2012). […] Acquired images were analyzed using BioimageXD (Kankaanpaa et al., 2006).

Assay [4] relates to CMT-93 cells. Briefly: C. jejuni epithelial cell translocation assay (transwell). The format is cell-based, Murine. The note with it: 10 μM AS252424, transwell, up to 5 hrs. How it is done: Murine rectal carcinoma epithelial CMT-93 cells (1×10^6) were plated onto 12-well Transwells (Corning Inc., Corning, N.Y., United States of America) in DMEM media containing 10% FBS and 2 mM L-glutamine. Upon reached confluency (monolayer), the medium was changed to 1% FBS medium and 10^8 C. jejuni was added to the upper inserts in presence or absence of 10 μM AS252424. Aliquot of medium from bottom wells was collected every hr for 5 hrs, serially diluted and cultured on Remel (Remel, Thermo Scientific, Hampton, N.H., United States of America) plates as described before (Sun et al., 2012). Translocated C. jejuni was reported as CFU/ml at each time point.

SMILES strings stand for the structures.

In the case of `O=C1NC(=O)/C(=C/c2ccc(-c3ccc(F)cc3O)o2)S1` [AS252424], in assay [1], the “AKT phosphorylation (S473) in colonic extracts” value was “modest reduction”. Also, the “block of C. jejuni-induced Cxcl2 mRNA accumulation” value in assay [2] was determined as 73%. In assay [3], the “C. jejuni in colon (FISH, confocal)” value is recorded as “barely detectable”. Further, the “C. jejuni translocation across CMT-93 monolayer” value in assay [4] is on record as “did not prevent”.

(Values after patent US20130225629A1, “TARGETING PI3K/MTOR SIGNALLING AND NEUTROPHIL RECRUITMENT FOR TREATMENT OF ENTERITIS” (THE UNIVERSITY OF NORTH CAROLINA AT CHAPEL HILL, priority 2012, published 2013).)
